This is an account of results in publication PMC7901650, “Garcinoic Acid Is a Natural and Selective Agonist of Pregnane X Receptor” (Journal of Medicinal Chemistry, 2020).

Data set [1] has as its target T1, hPXR (Homo sapiens, UniProt O75469).
T1 construct: GST-LBD
T1 sequence (O75469 146-433 limits assumed): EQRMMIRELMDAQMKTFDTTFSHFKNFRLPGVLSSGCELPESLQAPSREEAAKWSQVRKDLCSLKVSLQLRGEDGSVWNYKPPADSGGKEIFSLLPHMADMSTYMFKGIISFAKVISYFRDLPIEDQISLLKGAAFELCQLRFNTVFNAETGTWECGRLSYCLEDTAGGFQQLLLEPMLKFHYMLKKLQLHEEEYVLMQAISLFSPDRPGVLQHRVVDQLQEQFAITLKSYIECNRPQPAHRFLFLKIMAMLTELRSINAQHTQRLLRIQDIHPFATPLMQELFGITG
The data set is described as follows: AlphaScreen coactivator recruitment assay, PXR. In kind it is biochemical. The following applies: 10 μM compound concentration. (In Alpha technology, singlet oxygen from a donor bead excites a nearby acceptor bead.)

The target in data set [2] is T2, recombinant human Pgp (Homo sapiens, UniProt P08183).
T2 construct: purchased Promega
The experiment in a line: P-glycoprotein activity assay (Pgp-Glo). In kind it is biochemical. The note with it: 50 nM to 25 μM. The text has this:
To evaluate the effects of GA on recombinant human Pgp in a cell membrane fraction, we used the Pgp-Glo assay system (Promega, Madison, WI), according to the manufacturer’s instruction. The assay relies on the ATP dependence of the light-generating reaction of firefly luciferase.

In data set [3] the test system is HepG2 cells. The experiment in a line: PXR, CYP3A4 and MDR1 expression in HepG2 cells. Type of data set: cell-based. Here is the method:
HepG2 (human hepatoma cell line; ATCC HB-8065, Manassas, VA) and HepaRG (HPRGC10, Thermo Fisher Scientific) cells were maintained in culture as previously described.[47] Experiments were performed between passages 2 and 10. Cell viability, clonogenic activity, and apoptotic cell death were assessed as previously described (see Figure S2).[58],[59] HT29 human colorectal adenocarcinoma cells (ATCC HTB-38) and its mucous-secreting HT29-MTX subclone (Sigma-Aldrich) were used as intestinal cell models. HT29 cells were cultured in RPMI (Invitrogen; Life Technologies) containing 10% FBS (v/v) and 1% (v/v) L-glutamine. HT29-MTX cells (from Sigma-Aldrich) were cultured in DMEM supplemented with 2 mM glutamine, 1% nonessential amino acids, and 10% FBS. Cells were maintained at 37 C in a humidified 5% (v/v) CO2 atmosphere chamber and were used between passages 10 and 20.
Cells were harvested and lysed in ice-cold cell lysis buffer (Cell Signaling Technology) and 20 μL/mL protease inhibitor cocktail (Roche). Murine tissues (10 mg each) were weighed and resuspended in 300 μL of PBS supplemented with NP40 (1:50) and a cocktail of protease inhibitors (Pierce, Thermo Fisher Scientific). After preliminary homogenation in a 1-mL potter, sonication was performed in ice (3 cycles of 15 s each with 1 min intervals). After incubation in ice for 1 h and centrifugation (12 000 rpm for 20 min at 4 °C), the supernatant was recovered, and total proteins were quantified by the BCA assay kit (Pierce, Thermo Fisher Scientific). […] The band intensity was analyzed using Gel Pro analyzer Software. […]
RNA was extracted using the RNeasy Plus Kit (QIAGEN, Valencia, CA) and quantified with Implen NanoPhotometer (GmbH Germany), and cDNA synthesis was carried out using SuperScript IV (Thermo Fisher Scientific, MA). […]

T2 sequence (P08183 whole entry): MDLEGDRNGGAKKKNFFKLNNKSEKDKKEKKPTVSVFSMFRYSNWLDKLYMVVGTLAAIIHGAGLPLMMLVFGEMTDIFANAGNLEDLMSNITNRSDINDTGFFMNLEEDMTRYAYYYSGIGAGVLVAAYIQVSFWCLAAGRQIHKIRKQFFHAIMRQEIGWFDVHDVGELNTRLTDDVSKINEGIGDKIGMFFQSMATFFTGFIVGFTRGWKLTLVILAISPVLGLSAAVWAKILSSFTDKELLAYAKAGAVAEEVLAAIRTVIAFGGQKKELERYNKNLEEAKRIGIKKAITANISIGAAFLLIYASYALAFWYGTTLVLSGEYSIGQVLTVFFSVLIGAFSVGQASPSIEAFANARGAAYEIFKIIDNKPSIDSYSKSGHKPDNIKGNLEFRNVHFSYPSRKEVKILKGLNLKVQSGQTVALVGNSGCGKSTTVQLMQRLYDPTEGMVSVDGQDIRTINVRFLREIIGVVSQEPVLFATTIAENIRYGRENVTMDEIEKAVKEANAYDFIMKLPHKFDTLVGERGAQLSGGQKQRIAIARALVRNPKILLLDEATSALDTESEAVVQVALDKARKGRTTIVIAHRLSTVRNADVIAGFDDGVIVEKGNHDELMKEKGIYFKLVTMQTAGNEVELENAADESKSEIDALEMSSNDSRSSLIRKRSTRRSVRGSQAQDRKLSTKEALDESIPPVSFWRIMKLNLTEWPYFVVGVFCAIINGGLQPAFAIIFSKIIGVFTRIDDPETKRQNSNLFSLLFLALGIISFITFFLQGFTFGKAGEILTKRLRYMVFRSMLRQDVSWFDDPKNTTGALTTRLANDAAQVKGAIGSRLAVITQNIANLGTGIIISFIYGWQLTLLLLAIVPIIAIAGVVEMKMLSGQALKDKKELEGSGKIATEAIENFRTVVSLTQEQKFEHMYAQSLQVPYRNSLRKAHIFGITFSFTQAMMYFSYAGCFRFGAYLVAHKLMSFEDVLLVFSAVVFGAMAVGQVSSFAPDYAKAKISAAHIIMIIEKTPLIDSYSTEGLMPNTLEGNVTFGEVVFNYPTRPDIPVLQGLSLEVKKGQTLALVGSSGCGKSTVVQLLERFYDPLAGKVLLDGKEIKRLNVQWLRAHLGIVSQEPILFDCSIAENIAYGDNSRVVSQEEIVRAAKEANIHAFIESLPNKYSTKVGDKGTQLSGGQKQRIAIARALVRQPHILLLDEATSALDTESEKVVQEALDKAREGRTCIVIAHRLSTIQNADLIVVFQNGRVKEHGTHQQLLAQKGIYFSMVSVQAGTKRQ

`C/C(=C\CC/C(C)=C/CC[C@]1(C)CCc2cc(O)cc(C)c2O1)CC/C=C(\C)C(=O)O` [GA (1), (2E,6E,10E)-13-[(2R)-6-hydroxy-2,8-dimethyl-chroman-2-yl]-2,6,10-trimethyltrideca-2,6,10-trienoic acid]: the “PXR agonist activity (AlphaScreen, single concentration)” value in data set [1] is “significant PXR agonist activity”. In addition, the “P-glycoprotein (MDR1) activity” value in data set [2] is recorded as “increased in a dose–dose-dependent manner”. The MDR1 gene expression entry in data set [3] (HepG2, 1 to 50 μM) is reported as “increased in a dose–dose-dependent manner”. In data set [3] (HepG2, 24 h, 1 and 25 μM), the “CYP3A4 protein and mRNA expression” value is “increased in a dose–dose-dependent manner”; the PXR protein expression result is “increased in a dose–dose-dependent manner”.
